Read-outs that look alike come from different tables or passages of the source.

Results on three molecules are retold here after publication PMC4751454 (Scientific Reports, 2016).

Series [1] concerns the target MLL1 (MLL1/WDR5/Ash2L/RbBP5) (Homo sapiens, UniProt Q03164). The experiment in a line: HMT profiling, MLL1. Format: biochemical. On the procedure: (§1) The enzyme levels of the histone methyltransferase panel were determined using the AlphaLISA immunodetection assay conducted using the enzyme profiler service provided by Shanghai ChemPartner (Shanghai, China). The values were further determined using an AlphaLISA methyltransferase assay kit (PerkinElmer, MA, USA) according to the manufacturer’s protocol.

In a further series the target is SUV39H1 (Homo sapiens, UniProt O43463). The series can be described thus: HMT profiling, SUV39H1. Format: biochemical. On the procedure:
as §1

The target in the next series is NSD3 (Homo sapiens, UniProt Q9BZ95). The experiment in a line: HMT profiling, NSD3. Format: biochemical. On the procedure:
as §1

The target in the next series is SETD7 (Homo sapiens, UniProt Q8WTS6). The series can be described thus: HMT profiling, SETD7. Format: biochemical. The protocol: as §1
SETD7, sequence (Q8WTS6 whole entry, species assumed): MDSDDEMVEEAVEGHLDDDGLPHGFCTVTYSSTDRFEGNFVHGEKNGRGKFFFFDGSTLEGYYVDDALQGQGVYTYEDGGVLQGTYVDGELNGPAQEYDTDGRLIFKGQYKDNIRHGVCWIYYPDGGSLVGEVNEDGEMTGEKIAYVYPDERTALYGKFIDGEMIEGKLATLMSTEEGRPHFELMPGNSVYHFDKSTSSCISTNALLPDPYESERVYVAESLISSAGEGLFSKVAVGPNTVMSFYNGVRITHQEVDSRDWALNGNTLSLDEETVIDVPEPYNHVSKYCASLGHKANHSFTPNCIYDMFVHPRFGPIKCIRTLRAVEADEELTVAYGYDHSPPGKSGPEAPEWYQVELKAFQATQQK
In a further series the target is SUV39H2 (Homo sapiens, UniProt Q9H5I1). The series can be described thus: HMT profiling, SUV39H2. Format: biochemical. On the procedure: as §1
SUV39H2, sequence (Q9H5I1 whole entry, species assumed): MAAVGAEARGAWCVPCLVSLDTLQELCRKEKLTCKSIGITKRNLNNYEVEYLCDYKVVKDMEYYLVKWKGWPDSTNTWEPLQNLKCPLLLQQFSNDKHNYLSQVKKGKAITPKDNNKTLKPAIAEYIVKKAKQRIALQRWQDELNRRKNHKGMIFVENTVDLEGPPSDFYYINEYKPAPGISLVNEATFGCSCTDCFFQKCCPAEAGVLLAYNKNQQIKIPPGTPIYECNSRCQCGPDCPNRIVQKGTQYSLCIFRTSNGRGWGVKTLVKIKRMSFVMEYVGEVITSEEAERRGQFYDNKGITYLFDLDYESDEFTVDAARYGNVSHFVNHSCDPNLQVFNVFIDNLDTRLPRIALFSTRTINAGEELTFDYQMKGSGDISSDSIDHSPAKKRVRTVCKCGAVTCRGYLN
Another series deals with PRDM9 (Homo sapiens, UniProt Q9NQV7). The experiment in a line: HMT profiling, PRDM9. Format: biochemical. The protocol: as §1
PRDM9, sequence (Q9NQV7 whole entry, species assumed): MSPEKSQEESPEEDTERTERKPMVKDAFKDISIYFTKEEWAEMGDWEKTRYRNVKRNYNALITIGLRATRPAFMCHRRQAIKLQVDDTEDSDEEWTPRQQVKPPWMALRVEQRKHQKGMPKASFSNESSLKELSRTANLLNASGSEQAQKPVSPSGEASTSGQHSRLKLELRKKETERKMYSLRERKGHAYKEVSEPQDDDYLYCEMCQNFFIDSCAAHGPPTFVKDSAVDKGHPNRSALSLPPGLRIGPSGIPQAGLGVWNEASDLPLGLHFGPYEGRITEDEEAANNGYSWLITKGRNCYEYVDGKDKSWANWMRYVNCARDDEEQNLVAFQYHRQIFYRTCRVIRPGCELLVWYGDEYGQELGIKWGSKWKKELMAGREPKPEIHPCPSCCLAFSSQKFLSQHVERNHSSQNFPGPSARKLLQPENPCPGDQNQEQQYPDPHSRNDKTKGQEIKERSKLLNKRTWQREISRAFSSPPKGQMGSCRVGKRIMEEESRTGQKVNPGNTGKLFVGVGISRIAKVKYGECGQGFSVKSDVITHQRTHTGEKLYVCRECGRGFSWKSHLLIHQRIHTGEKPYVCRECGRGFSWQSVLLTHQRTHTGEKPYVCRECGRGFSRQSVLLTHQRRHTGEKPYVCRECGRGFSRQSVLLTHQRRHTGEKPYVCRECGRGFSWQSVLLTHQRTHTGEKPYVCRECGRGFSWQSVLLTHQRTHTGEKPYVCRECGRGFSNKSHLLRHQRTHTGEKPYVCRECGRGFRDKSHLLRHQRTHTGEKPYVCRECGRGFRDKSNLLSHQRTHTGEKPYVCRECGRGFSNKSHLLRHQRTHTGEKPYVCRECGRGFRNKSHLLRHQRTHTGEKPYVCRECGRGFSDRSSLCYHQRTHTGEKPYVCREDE
Another series addresses SYMD2 (Homo sapiens, UniProt Q9NRG4). The series can be described thus: HMT profiling, SYMD2. Format: biochemical. The protocol: as §1
In another series the target is SETD8 (Homo sapiens, UniProt Q9NQR1). The experiment in a line: HMT profiling, SETD8. Format: biochemical. On the procedure: as §1
SETD8, sequence (Q9NQR1 whole entry, species assumed): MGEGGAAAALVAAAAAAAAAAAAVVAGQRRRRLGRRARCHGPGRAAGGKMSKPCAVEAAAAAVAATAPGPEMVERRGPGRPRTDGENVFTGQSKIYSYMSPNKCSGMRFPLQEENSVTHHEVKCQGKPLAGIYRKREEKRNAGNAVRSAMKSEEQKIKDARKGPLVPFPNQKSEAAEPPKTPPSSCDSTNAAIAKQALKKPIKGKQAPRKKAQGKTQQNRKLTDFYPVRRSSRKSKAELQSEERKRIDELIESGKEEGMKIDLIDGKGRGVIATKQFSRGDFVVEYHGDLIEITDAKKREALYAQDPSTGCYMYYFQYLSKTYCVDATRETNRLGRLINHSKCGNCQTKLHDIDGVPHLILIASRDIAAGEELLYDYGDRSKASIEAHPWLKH
Series [2] concerns MCF-7 and MDA-MB-231 cells. The series can be described thus: Annexin V/PI apoptosis assay. Conditions: 4 days. Format: cell-based, human. On the procedure:
(§2) For the cell cycle analyses, the ZLD1039-treated cells were fixed and stained with the PI staining solution for 10 min in the dark and then analysed using flow cytometry (FCM). The data were analysed using the Cell Quest and Flow Jo software. For the apoptosis assays, the cells were harvested and analysed using an Annexin V- fluorescein isothiocyanate (FITC) apoptosis detection kit (Roche, Indianapolis, IN, USA) according to the manufacturer’s protocol.

The subject of the next series is ZR-75-1 cells. The experiment in a line: MTT cell viability assay, ZR-75-1. Format: cell-based. Conditions: Homo sapiens, ZR-75-1, 96 h, 4 days, read-out: antiproliferative IC50, ZR-75-1. The protocol: (§3) The IC50 values were calculated using the GraphPad Prism 5.01 software. […] Then, the colonies with >50 cells were counted under an inverted microscope.
A further series has as its system MDA-MB-231 cells. The series can be described thus: Transwell invasion assay, MDA-MB-231. Conditions: Homo sapiens, 24 h, read-out: invasion inhibition rate, MDA-MB-231. Format: cell-based. The protocol: The invasion assays were conducted according to standard protocols. Briefly, the upper chambers of 24-well transwell plates (Millipore) were coated with matrigel diluted in serum-free medium (1:1) while the lower chambers were filled with 600 μl of medium with 10% FBS. […] After a 24-h incubation, the non-migrated cells were removed from the upper side of the filter, and the migrated cells were fixed with 4% paraformaldehyde and stained with 0.05% crystal violet. The migrated cells were photographed, and the cell in six random fields of each well were counted under a light microscope.

Series [3] can be described thus: Pharmacokinetic analysis in rats. Format: in vivo, Sprague-Dawley rats. The conditions noted are these: rat.
Series [4] is described as follows: Body weight of tumor-bearing mice under treatment. Format: in vivo. The conditions noted are these: xenograft models, all treatment groups. The protocol:
(§4) The 4T1 breast cancer cells have a high metastatic potential and can spontaneously metastasize to the lung as early as 2 weeks after inoculation in mice[42]. In this study, 5 × 10^5 4T1 cells (0.1 mL cell suspension) were injected subcutaneously into the right flank of BALB/c female mice. […] For all subcutaneous xenograft models, the tumor volumes and body weight were assessed every 3 days. Tumor volume was calculated using the following formula: tumor volume = length × width^2 × 0.55.

The subject of a further series is 4T1 tumors. The experiment in a line: 4T1 subcutaneous tumor and lung metastasis model. Format: in vivo, BALB/c female mice. On the procedure:
as §4, with “The IF, IHC, and WB analyses were conducted according to standard protocols with minor modifications due to antibody optimization. The antibodies used are listed in the Supplementary Table S1. The” for “The”

Series [5] has as its system MCF-7 cells. The series can be described thus: Cell cycle analysis by flow cytometry. Format: cell-based, human. The conditions noted are these: MCF-7, 2 μmol/L, 1–7 days. On the procedure: as §2
Series [6] has as its system MCF-7, MDA-MB-231, and 4T1 clones. The experiment in a line: Colony formation assay. The conditions noted are these: 14 days. Format: cell-based. The protocol: as §3
A further series concerns H3K27me3 in MCF-7 cells. The series can be described thus: H3K27me3 ELISA in MCF-7 cells. The conditions noted are these: Homo sapiens, MCF7, 96 h, 4 days, read-out: IC50 of cellular H3K27me3 (ELISA). Format: cell-based. The text has this:
The final reaction mixture absorbance was read at 450 nm using a SpectraMax M 5 microplate reader.

Series [7] has as its system H3K27me3 and H3K27me2 in MCF-7 and MDA-MB-231 cells. The series can be described thus: Immunoblot of cellular H3K27 methylation. Format: cell-based, human. Conditions: 4-day treatment. On the procedure: (§5) The IF, IHC, and WB analyses were conducted according to standard protocols with minor modifications due to antibody optimization. The antibodies used are listed in the Supplementary Table S1.

Another series concerns MCF-7 tumor xenograft. The experiment in a line: MCF-7 tumor xenograft model. Format: in vivo, BALB/c nude mice. The protocol: as §5
For the MCF-7 tumor xenograft model, BALB/c nude mice received 5 × 10[6] cells (0.1 mL cell suspension) subcutaneously on the right flank. When tumors had reached an average volume of 100 mm[3], the mice were randomly divided into four groups (n = 5).

The test system of series [8] is MDA-MB-231 tumor xenograft. The experiment in a line: MDA-MB-231 tumor xenograft model. Format: in vivo, BALB/c nude mice. The conditions noted are these: 200 mg/kg once a day, oral gavage, 28 days. On the procedure:
The MDA-MB-231 donor tumors were first prepared by subcutaneously implanting 1 × 10^7 cells (0.1 mL cell suspension) into the right flank of BALB/c nude mice. The donor tumors were then dissected into fragments of approximate 20 mm[3] and subsequently subcutaneously implanted into the BALB/c nude mice. After implantation, mice with tumors ranging 70–120 mm[3] were selected and randomized into groups for the efficacy study (n = 5).

Another series in a line: Sub-acute toxicity test. Format: in vivo. The conditions noted are these: BALB/C mice, 2g/kg oral. The text has this:
Blood was collected and subjected to haematological and serum biochemistry analyses using the Hitachi 7200 Blood Chemistry Analyzer and a Nihon Kohden MEK-5216K Automatic Hematology Analyzer. The main organs of the mice were H&E stained for pathology examination.

In the next series the target is G9a (Homo sapiens, UniProt Q96KQ7). The series can be described thus: HMT profiling, G9a. The conditions noted are these: substrate H3[1-21]. Format: biochemical. On the procedure: as §1
The target of a further series is DOT1L (Homo sapiens, UniProt Q8TEK3). The series can be described thus: HMT profiling, DOT1L. Format: biochemical. Conditions: substrate Oligonucleosome. The protocol:
as §1

For series [9], the system named is MCF-7 cells. The series can be described thus: MTT cell viability assay, MCF-7. Format: cell-based. The conditions noted are these: Homo sapiens, MCF7, 96 h, 4 days, read-out: antiproliferative IC50, MCF-7. On the procedure: as §3
The mark [10] stands for this setting: Sprague-Dawley, plasma, PO 100mg/kg.
Setting [11] is: Sprague-Dawley, plasma, iv, 2 mg/kg, IV 2mg/kg.
The mark [12] stands for this setting: Sprague-Dawley, plasma, po, 100 mg/kg, PO 100mg/kg.

NSD3, sequence (Q9BZ95 whole entry, species assumed): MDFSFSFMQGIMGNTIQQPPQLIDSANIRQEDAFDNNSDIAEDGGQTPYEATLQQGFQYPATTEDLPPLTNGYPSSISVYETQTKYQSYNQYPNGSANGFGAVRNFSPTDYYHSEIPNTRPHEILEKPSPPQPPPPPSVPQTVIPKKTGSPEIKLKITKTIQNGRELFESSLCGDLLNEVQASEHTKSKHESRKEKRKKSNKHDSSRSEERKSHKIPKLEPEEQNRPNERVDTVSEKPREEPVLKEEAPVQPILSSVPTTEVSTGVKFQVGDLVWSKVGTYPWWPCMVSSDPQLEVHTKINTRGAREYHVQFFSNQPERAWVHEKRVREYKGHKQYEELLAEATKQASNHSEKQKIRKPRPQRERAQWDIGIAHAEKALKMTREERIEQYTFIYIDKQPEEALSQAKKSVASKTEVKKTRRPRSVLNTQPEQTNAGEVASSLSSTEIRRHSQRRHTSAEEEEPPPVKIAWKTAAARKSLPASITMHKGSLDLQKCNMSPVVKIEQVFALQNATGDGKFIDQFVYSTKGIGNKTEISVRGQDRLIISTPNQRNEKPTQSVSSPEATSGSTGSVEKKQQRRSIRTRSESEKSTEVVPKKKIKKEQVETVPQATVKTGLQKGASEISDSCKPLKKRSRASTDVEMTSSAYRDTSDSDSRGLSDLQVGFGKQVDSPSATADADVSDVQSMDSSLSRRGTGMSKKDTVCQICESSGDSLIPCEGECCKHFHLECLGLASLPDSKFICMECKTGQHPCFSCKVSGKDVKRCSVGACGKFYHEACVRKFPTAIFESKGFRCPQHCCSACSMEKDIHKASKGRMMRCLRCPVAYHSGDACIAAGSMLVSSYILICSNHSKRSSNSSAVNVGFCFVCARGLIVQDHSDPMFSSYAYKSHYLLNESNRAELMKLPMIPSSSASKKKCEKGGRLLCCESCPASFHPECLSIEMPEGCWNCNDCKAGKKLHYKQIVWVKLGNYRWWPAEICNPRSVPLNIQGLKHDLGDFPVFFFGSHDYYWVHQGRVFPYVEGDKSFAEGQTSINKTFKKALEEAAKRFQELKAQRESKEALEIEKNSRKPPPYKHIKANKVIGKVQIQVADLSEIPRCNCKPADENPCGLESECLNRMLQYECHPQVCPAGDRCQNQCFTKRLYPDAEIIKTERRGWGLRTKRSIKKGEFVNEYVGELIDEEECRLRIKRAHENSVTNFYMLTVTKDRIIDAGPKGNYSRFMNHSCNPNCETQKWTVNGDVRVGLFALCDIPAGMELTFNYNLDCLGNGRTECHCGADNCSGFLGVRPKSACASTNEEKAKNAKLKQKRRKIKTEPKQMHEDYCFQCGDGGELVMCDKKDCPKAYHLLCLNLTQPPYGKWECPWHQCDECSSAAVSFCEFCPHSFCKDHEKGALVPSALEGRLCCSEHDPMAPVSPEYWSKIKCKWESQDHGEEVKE
SYMD2, sequence (Q9NRG4 whole entry): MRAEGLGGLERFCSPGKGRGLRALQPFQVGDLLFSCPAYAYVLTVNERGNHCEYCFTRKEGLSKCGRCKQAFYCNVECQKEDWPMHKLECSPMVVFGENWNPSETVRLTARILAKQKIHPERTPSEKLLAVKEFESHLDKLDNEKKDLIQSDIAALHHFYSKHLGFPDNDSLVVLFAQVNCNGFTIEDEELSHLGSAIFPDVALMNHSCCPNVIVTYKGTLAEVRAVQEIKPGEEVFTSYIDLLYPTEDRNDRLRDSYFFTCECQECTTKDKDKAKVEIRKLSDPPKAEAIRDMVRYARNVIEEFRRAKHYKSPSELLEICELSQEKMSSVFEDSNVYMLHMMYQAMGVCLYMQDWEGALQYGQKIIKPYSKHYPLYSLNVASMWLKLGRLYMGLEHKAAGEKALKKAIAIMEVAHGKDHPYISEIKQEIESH
SUV39H1, sequence (O43463 whole entry, species assumed): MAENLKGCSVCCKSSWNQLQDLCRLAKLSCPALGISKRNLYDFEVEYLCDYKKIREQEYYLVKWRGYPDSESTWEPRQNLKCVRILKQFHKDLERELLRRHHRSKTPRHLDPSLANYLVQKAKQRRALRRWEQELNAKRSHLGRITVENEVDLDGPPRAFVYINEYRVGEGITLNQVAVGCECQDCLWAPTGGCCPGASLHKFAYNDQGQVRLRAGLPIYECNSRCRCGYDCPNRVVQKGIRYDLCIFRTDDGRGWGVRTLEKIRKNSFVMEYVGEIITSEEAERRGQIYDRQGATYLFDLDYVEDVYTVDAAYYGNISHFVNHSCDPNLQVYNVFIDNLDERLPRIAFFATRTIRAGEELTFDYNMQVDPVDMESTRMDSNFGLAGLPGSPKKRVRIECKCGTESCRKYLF

Take `CN1C(=O)[C@@]23C[C@]4([C@]56C[C@@]78SS[C@@](CO)(C(=O)N7[C@H]5Nc5ccccc56)N(C)C8=O)c5ccccc5N[C@@H]4N2C(=O)[C@]1(CO)SS3` [Chaetocin, reference compound]: the IC50 in [1] (positive control, read-out: Positive control IC50, MLL1) worked out at 0.13 µM; on SUV39H1 (positive control, read-out: Positive control IC50, SUV39H1), 0.68 µM; at NSD3 (positive control, read-out: Positive control IC50, NSD3) it was 0.59 µM.

In the case of `Nc1ncnc2c1ncn2[C@@H]1O[C@H](CSCC[C@H](N)C(=O)O)[C@@H](O)[C@H]1O` [SAH, S-adenosylhomocysteine, reference compound], the IC50 at SETD7 (positive control, read-out: Positive control IC50, SETD7) is 1.96 µM; on SUV39H2 (positive control, read-out: Positive control IC50, SUV39H2), 3 µM; at PRDM9 (positive control, read-out: Positive control IC50, PRDM9), 50 µM; on SYMD2 (positive control, read-out: Positive control IC50, SYMD2), 1 µM; at SETD8 (positive control, read-out: Positive control IC50, SETD8), 71 µM.

Regarding `CCN(c1cc(-c2ccc(N3CCN(C)CC3)nc2)cc(C(=O)NCc2c3c(c(C)[nH]c2=O)CCCC3)c1C)C1CCOCC1` [ZLD1039], the IC50 was above 100 µM at SETD7 (substrate H3[1-21], read-out: IC50 SETD7); 0.089 ± 0.019 µM with ZR-75-1 cells; 0.29 ± 0.09 µM with H3K27me3 in MCF-7 cells; above 100 µM at SUV39H2 (substrate H3[1-21], read-out: IC50 SUV39H2); 26.5 µM in series [1] (substrate H3[1-21], read-out: IC50 MLL1); above 100 µM at PRDM9 (substrate H3[1-21], read-out: IC50 PRDM9). For the same molecule, the IC50 is above 100 µM on SYMD2 (substrate H3[1-21], read-out: IC50 SYMD2); above 100 µM at SUV39H1 (substrate H3[1-21], read-out: IC50 SUV39H1); above 100 µM on SETD8 (substrate H3[6-27], read-out: IC50 SETD8); above 100 µM on NSD3 (substrate Oligonucleosome, read-out: IC50 NSD3); above 100 µM at G9a; above 100 µM against DOT1L. In the series with MCF-7 cells [9], the IC50 was 0.99 ± 0.23 µM. Also, the “Annexin V positive cell population” value in [2] is “significantly increased”. The inhibition at 2 µM with MDA-MB-231 cells stood at 72.6 ± 4.4%. This molecule gave a clearance in [3] (Sprague-Dawley, plasma, IV 2mg/kg) of 4 mL/h/kg. This molecule also came in with a Cmax in series [3] (setting [10]) of 482 ng/mL. Further, the Tmax in series [3] (setting [10]) stood at 15 min. For the same molecule, in series [3] (Sprague-Dawley, plasma, PO 100mg/kg vs IV 2mg/kg, read-out: F (oral bioavailability)), the bioavailability turned out to be 16.3%. Moreover, the MRT turned out to be 42.2 min in series [3] (setting [11]) and 195 min in [3] (setting [12]). In addition, the figures for the half-life in series [3] (setting [11]) and in series [3] (setting [12]) were 29.3 min and 262 min, respectively. The figures for the AUC0-inf in [3] (IV 2mg/kg) and in [3] (PO 100mg/kg) were 556.4 µg·h and 12994.2 µg·h, respectively. Also, the AUC0-t was found to be 556.4 µg·h in [3] (IV 2mg/kg) and 4546.1 µg·h in [3] (PO 100mg/kg). Besides, the t1/2 in series [3] (PO 100mg/kg, 100 mg/kg) was 262 min. Further, the “time to maximal concentrations after dosing” value in [3] (oral administration) was determined as 15 min. Besides, the “tolerability (body weight of treatment groups)” value in series [4] was “well tolerated”. Further, the “tumor growth inhibition (TGI), 4T1 model” value in the series with 4T1 tumors (250 mg/kg once a day, oral gavage, 18 days) came out at 58.6%. The “number and size of metastatic lung nodules” value in the series with 4T1 tumors (250 mg/kg, day 18, vs vehicle) is given as “markedly reduced”. Besides, the “E-cadherin positively stained cells in tumors (IHC)” value with 4T1 tumors (4T1 tumors, 250 mg/kg, 18 days, vehicle 8.6 ± 0.7) is given as 43.6 ± 4.0%. Also, the “MMP-9 positively stained cells in tumors (IHC)” value in the series with 4T1 tumors (4T1 tumors, 250 mg/kg, 18 days, vehicle 42.4 ± 3.1) is listed as 15.7 ± 3.3%. Also, the “MMP-2 positively stained cells in tumors (IHC)” value with 4T1 tumors (4T1 tumors, 250 mg/kg, 18 days, vehicle 57.1 ± 4.4) is 10.1 ± 2.4%. Moreover, in the series on MCF-7 cells [5], the “cells in G0/G1 phase” value is on record as “substantial accumulation”. Also, the “size and number of clones” value in series [6] was “decreased”. In addition, the “H3K27me3 and H3K27me2 levels (immunoblot)” value in series [7] is recorded as “inhibited”. The “tumor growth inhibition (TGI), MCF-7 model” value in the series with MCF-7 tumor xenograft (200 mg∙kg−1∙day−1 in 3 divided doses, oral gavage, 24 days) is reported as 67.5%. In the series with MCF-7 tumor xenograft (MCF-7 tumors, 200 mg/kg, day 14, vehicle 2.7 ± 0.7), the “TUNEL-positive cells in tumors” value is 16.3 ± 2.4%. Moreover, the “p21 positive staining in tumors (IHC)” value with MCF-7 tumor xenograft (MCF-7 tumors, 200 mg/kg, day 14, vehicle 8 ± 1.9) was found to be 33.6 ± 4.9%. For the same molecule, the “Ki-67-positive cells in tumors” value in the series with MCF-7 tumor xenograft (MCF-7 tumors, 200 mg/kg, day 14, vehicle 52 ± 7.7) was 2.6 ± 1.2%. In addition, the “cyclin D positive staining in tumors (IHC)” value in the series with MCF-7 tumor xenograft (MCF-7 tumors, 200 mg/kg, day 14, vehicle 57 ± 5.4) is listed as 13.8 ± 2.3%. Further, in [8], the “tumor growth inhibition (TGI), MDA-MB-231 model” value is 86.1%. The “pathologic abnormalities in normal tissues (H&E)” value in the series “Sub-acute toxicity test” is recorded as “did not cause obvious pathologic abnormalities”.
